What follows are compounds tested against T1, human LPA1 (Homo sapiens, UniProt Q92633) (assay: LPA1 calcium flux assay). Settings: human LPA1 expressing CHO cells, stimulated with 10 nM LPA; read-out: HLPA1 Ca Flux IC50.
T1 construct: the full-length cDNA for human LPA1 was obtained by PCR of the reverse transcription reaction; expressed in transfected cells
Type: cell-based
Protocol: Establishment of a CHO Cell Line Stably Expressing Human LPA1
A 1.1 kb cDNA encoding the human LPA1 receptor was cloned from human lung.
Human lung RNA (Clontech Laboratories, Inc. USA) was reverse transcribed using the RETROscript kit (Ambion, Inc.) and the full-length cDNA for human LPA1 was obtained by PCR of the reverse transcription reaction. The nucleotide sequence of the cloned human LPA1 was determined by sequencing and confirmed to be identical to the published human LPA1 sequence (An et al. Biochem. Biophys. Res. Commun. 231:619 (1997). The cDNA was cloned into the pcDNA5/FRT expression plasmid and transfected in CHO cells using lipofectamine 2000 (Invitrogen Corp., USA). Clones stably expressing human LPA1 were selected using hygromycin and identified as cells that show Ca-influx in response to LPA.
LPA1 and LPA3 Calcium Flux Assays
Human LPA1 or LPA3 expressing CHO cells are seeded at 20,000-45,000 cells per well in a 96-well poly-D-lysine coated plate one or two days before the assay. Prior to the assay, the cells are washed once with PBS and then cultured in serum-free media overnight. On the day of the assay, a calcium indicator dye (Calcium 4, Molecular Devices) in assay buffer (HBSS with Ca^2+ and Mg^2+ and containing 20 mM Hepes and 0.3% fatty-acid free human serum albumin) is added to each well and incubation continued for 1 hour at 37° C. 10 μl of test compounds in 2.5% DMSO are added to the cells and incubation continued at room temperature for 30 minutes. Cells are the stimulated by the addition of 10 nM LPA and intracellular Ca^2+ measured using the Flexstation 3 (Molecular Devices). IC50s are determined using Graphpad prism analysis of drug titration curves.

T1 sequence (Q92633 whole entry): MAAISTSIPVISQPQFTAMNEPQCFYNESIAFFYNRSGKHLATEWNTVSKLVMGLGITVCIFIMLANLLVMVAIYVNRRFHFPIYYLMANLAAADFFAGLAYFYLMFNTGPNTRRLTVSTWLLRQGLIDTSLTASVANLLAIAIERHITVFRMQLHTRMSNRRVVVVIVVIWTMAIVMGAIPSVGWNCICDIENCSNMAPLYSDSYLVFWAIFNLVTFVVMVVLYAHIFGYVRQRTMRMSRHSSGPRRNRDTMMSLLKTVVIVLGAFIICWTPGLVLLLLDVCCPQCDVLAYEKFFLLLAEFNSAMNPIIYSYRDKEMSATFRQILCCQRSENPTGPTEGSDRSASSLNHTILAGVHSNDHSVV

Row | IC50 [nM] | Compound
1 | < 300 | Cc1noc(-c2ccc(-c3ccc(C4(C(=O)O)CC4)cc3)cc2)c1Nc1cccc(-c2c(Cl)cccc2Cl)n1 [Compound 1-150, 1-(4′-{4-[6-(2,6-Dichloro-phenyl)-pyridin-2-ylamino]-3-methyl-isoxazol-5-yl}-biphenyl-4-yl)-cyclopropanecarboxylic acid]
2 | < 300 | Cc1noc(-c2ccc(-c3ccc(C4(C(=O)O)CC4)cc3)cc2)c1Nc1cncc(-c2ccccc2Cl)c1 [Compound 1-113, 1-(4′-{4-[5-(2-Chloro-phenyl)-pyridin-3-ylamino]-3-methyl-isoxazol-5-yl}-biphenyl-4-yl)-cyclopropanecarboxylic acid]
3 | < 300 | Cc1noc(-c2ccc(-c3ccc(C4(C(=O)O)CC4)cc3)cc2)c1Nc1cccc(C#Cc2ccccc2)n1 [Compound 1-131, 1-{4′-[3-Methyl-4-(6-phenylethynyl-pyridin-2-ylamino)-isoxazol-5-yl]-biphenyl-4-yl}-cyclopropanecarboxylic acid]
4 | 1000 to 50000 | Cc1noc(-c2ccc(-c3ccc(C4(C(=O)O)CC4)cc3)cc2)c1-c1nnc(Cc2ccccc2)o1 [Compound 1-24, 1-{4′-[4-(5-Benzyl-[1,3,4]oxadiazol-2-yl)-3-methyl-isoxazol-5-yl]-biphenyl-4-yl}-cyclopropanecarboxylic acid]
5 | 1000 to 50000 | Cc1noc(-c2ccc(-c3ccc(C4(CC(=O)O)CC4)cc3)cc2)c1C(O)CCCc1ccc(Cc2ccccc2)cc1 (stereo not drawn) [Compound 1-32, [1-(4′-{4-[4-(4-Benzyl-phenyl)-1-hydroxy-butyl]-3-methyl-isoxazol-5-yl}-biphenyl-4-yl)-cyclopropyl]-acetic acid]
6 | < 300 | Cc1noc(-c2ccc(-c3ccc(CC(=O)O)cc3)cc2)c1C(O)c1cn(Cc2ccccc2)nn1 (stereo not drawn) [Compound 1-48, (4′-{4-[(1-Benzyl-1H-[1,2,3]triazol-4-yl)-hydroxy-methyl]-3-methyl-isoxazol-5-yl}-biphenyl-4-yl)-acetic acid]
7 | < 300 | Cc1noc(-c2ccc(-c3ccc(C4(C(=O)O)CC4)cc3)cc2)c1Cn1nc(-c2ccccc2)oc1=N [Compound 1-11, 1-{4′-[4-(2-Imino-5-phenyl-[1,3,4]oxadiazol-3-ylmethyl)-3-methyl-isoxazol-5-yl]-biphenyl-4-yl}-cyclopropanecarboxylic acid]
8 | < 300 | Cc1noc(-c2ccc(-c3ccc(C4(C(=O)O)CC4)cc3)cc2)c1C(O)c1cn(Cc2ccc(Cl)cc2)nn1 (stereo not drawn) [Compound 1-62, 1-[4′-(4-{[1-(4-Chloro-benzyl)-1H-[1,2,3]triazol-4-yl]-hydroxy-methyl}-3-methyl-isoxazol-5-yl)-biphenyl-4-yl]-cyclopropanecarboxylic acid]
9 | < 300 | Cc1noc(-c2ccc(-c3ccc(C4(C(=O)O)CC4)cc3)cc2)c1C(O)c1nnc(-c2ccccc2)o1 (stereo not drawn) [Compound 1-38, 1-(4′-{4-[Hydroxy-(5-phenyl-[1,3,4]oxadiazol-2-yl)-methyl]-3-methyl-isoxazol-5-yl}-biphenyl-4-yl)-cyclopropanecarboxylic acid]
10 | < 300 | Cc1noc(-c2ccc(-c3ccc(C4(C(=O)O)CC4)cc3)cc2)c1Nc1cccc(-c2cccc(C(F)(F)F)c2)n1 [Compound 1-77, 1-(4′-{3-Methyl-4-[6-(3-trifluoromethyl-phenyl)-pyridin-2-ylamino]-isoxazol-5-yl}-biphenyl-4-yl)-cyclopropanecarboxylic acid]
11 | < 300 | Cc1noc(-c2ccc(-c3ccc(C4(C(=O)O)CC4)cc3)cc2)c1Nc1cccc(C(=O)N2CCCC2)n1 [Compound 1-136, 1-(4′-{3-Methyl-4-[6-(pyrrolidine-1-carbonyl)-pyridin-2-ylamino]-isoxazol-5-yl}-biphenyl-4-yl)-cyclopropanecarboxylic acid]
12 | < 300 | Cc1noc(-c2ccc(-c3ccc(C4(C(=O)O)CC4)cc3)cc2)c1Nc1cncc(-c2cc(F)ccc2F)c1 [Compound 1-161, 1-(4′-{4-[5-(2,5-Difluoro-phenyl)-pyridin-3-ylamino]-3-methyl-isoxazol-5-yl}-biphenyl-4-yl)-cyclopropanecarboxylic acid]
13 | < 300 | Cc1noc(-c2ccc(-c3ccc(CCC(=O)O)cc3)cc2)c1Nc1nnc(-c2ccccc2)o1 [Compound 1-81, 3-{4′-[3-Methyl-4-(5-phenyl[1,3,4]oxadiazol-2-ylamino)-isoxazol-5-yl]-biphenyl-4-yl}-propionic acid]
14 | < 300 | Cc1noc(-c2ccc(-c3ccc(C4(C(=O)O)CC4)cc3)cc2)c1Cc1cn(Cc2ccccc2)nn1 [Compound 1-31, 1-{4′-[4-(1-Benzyl-1H-[1,2,3]triazol-4-ylmethyl)-3-methyl-isoxazol-5-yl]-biphenyl-4-yl}-cyclopropanecarboxylic acid]
15 | < 300 | Cc1noc(-c2ccc(-c3ccc(C4(C(=O)O)CC4)cc3)cc2)c1Nc1cccc(-c2ccccc2Cl)n1 [Compound 1-109, 1-(4′-{4-[6-(2-Chloro-phenyl)-pyridin-2-ylamino]-3-methyl-isoxazol-5-yl}-biphenyl-4-yl)-cyclopropanecarboxylic acid]
16 | < 300 | Cc1noc(-c2ccc(-c3ccc(C4(C(=O)O)CC4)cc3)cc2)c1Cn1cc(-c2ccccc2)nn1 [Compound 1-6, 1-{4′-[3-Methyl-4-(4-phenyl-[1,2,3]triazol-1-ylmethyl)-isoxazol-5-yl]-biphenyl-4-yl}-cyclopropanecarboxylic acid]
17 | 1000 to 50000 | Cc1noc(-c2ccc(-c3ccc(C4(CC(=O)O)CC4)cc3)cc2)c1NC1CCN(Cc2ccccc2)CC1 [Compound 1-37, (1-{4′-[4-(1-Benzyl-piperidin-4-ylamino)-3-methyl-isoxazol-5-yl]-biphenyl-4-yl}-cyclopropyl)-acetic acid]
18 | > 50000 | Cc1noc(-c2ccc(-c3ccc(C4(C(=O)O)CC4)cc3)cc2)c1CN1CCC(c2ccccc2)CC1 [Compound 1-10, 1-{4′-[3-Methyl-4-(4-phenyl-piperidin-1-ylmethyl)-isoxazol-5-yl]-biphenyl-4-yl}-cyclopropanecarboxylic acid]
19 | 1000 to 50000 | Cc1noc(-c2ccc(-c3ccc(C4(C(=O)NS(C)(=O)=O)CC4)cc3)cc2)c1C(O)c1cn(Cc2cccc(C(F)(F)F)c2)nn1 (stereo not drawn) [Compound 3-3, N-{1-[4′-(4-{Hydroxy-[1-(3-trifluoromethyl-benzyl)-1H-[1,2,3]triazol-4-yl]-methyl}-3-methyl-isoxazol-5-yl)-biphenyl-4-yl]-cyclopropanecarbonyl}-methanesulfonamide]
20 | < 300 | Cc1noc(-c2ccc(-c3ccc(C4(C(=O)O)CC4)cc3)cc2)c1Nc1cncc(-c2ccccc2)n1 [Compound 1-78, 1-{4′-[3-Methyl-4-(6-phenyl-pyrazin-2-ylamino)-isoxazol-5-yl]-biphenyl-4-yl}-cyclopropanecarboxylic acid]
21 | < 300 | Cc1noc(-c2ccc(-c3ccc(C4(C(=O)O)CC4)cc3)cc2)c1Nc1cccc(-c2cc(F)ccc2F)n1 [Compound 1-148, 1-(4′-{4-[6-(2,5-Difluoro-phenyl)-pyridin-2-ylamino]-3-methyl-isoxazol-5-yl}-biphenyl-4-yl)-cyclopropanecarboxylic acid]
22 | < 300 | Cc1noc(-c2ccc(-c3ccc(C4(C(=O)O)CC4)cc3)cc2)c1Nc1cccc(-c2cccc(Cl)c2)n1 [Compound 1-162, 1-(4′-{4-[6-(3-Chloro-phenyl)-pyridin-2-ylamino]-3-methyl-isoxazol-5-yl}-biphenyl-4-yl)-cyclopropanecarboxylic acid]
23 | < 300 | Cc1noc(-c2ccc(-c3ccc(C4(C(=O)O)CC4)cc3)cc2)c1Nc1ccnc(-c2ccccc2Cl)c1 [Compound 1-114, 1-(4′-{4-[2-(2-Chloro-phenyl)-pyridin-4-ylamino]-3-methyl-isoxazol-5-yl}-biphenyl-4-yl)-cyclopropanecarboxylic acid]
24 | < 300 | Cc1noc(-c2ccc(-c3ccc(C4(C(=O)O)CC4)cc3)cc2)c1NC(C)[C@@H]1C[C@H]1c1ccccc1 (relative stereo) [Compound 1-66, 1-(4′-{3-Methyl-4-[trans-1-(2-phenyl-cyclopropyl)-ethylamino]-isoxazol-5-yl}-biphenyl-4-yl)-cyclopropanecarboxylic acid]
25 | < 300 | CCc1noc(-c2ccc(-c3ccc(C4(C(=O)O)CC4)cc3)cc2)c1Nc1nnc(-c2ccccc2)o1 [Compound 2-2, 1-{4′-[3-Ethyl-4-(5-phenyl-[1,3,4]oxadiazol-2-ylamino)-isoxazol-5-yl]-biphenyl-4-yl}-cyclopropanecarboxylic acid]
26 | < 300 | Cc1noc(-c2ccc(-c3ccc(C4(C(=O)O)CC4)cc3)cc2)c1Nc1cccc(-c2cccc(C(N)=O)c2)n1 [Compound 1-144, 1-(4′-{4-[6-(3-Carbamoyl-phenyl)-pyridin-2-ylamino]-3-methyl-isoxazol-5-yl}-biphenyl-4-yl)-cyclopropanecarboxylic acid]
27 | < 300 | Cc1noc(-c2ccc(-c3ccc(C4(C(=O)O)CC4)cc3)cc2)c1Nc1cccc(-c2ccccc2C#N)n1 [Compound 1-91, 1-(4′-{4-[6-(2-Cyano-phenyl)-pyridin-2-ylamino]-3-methyl-isoxazol-5-yl}-biphenyl-4-yl)-cyclopropanecarboxylic acid]

Reference: patent publication US8664220B2, “Polycyclic compounds as lysophosphatidic acid receptor antagonists” (Amira Pharmaceuticals, Inc., priority 2009, dated 2014)
